Peptide text beside a SMILES is read from it. * marks the point of attachment. X2 = O=C(O)c1cc(NC(=S)*)ccc1-c1c2ccc(=O)cc-2oc2cc(O)ccc12; X1 = O=Cc1ccc(C(=O)*)cc1

The test deals with T1, Type-1 angiotensin II receptor (Oryctolagus cuniculus) (UniProt P34976).
T1 sequence (whole entry): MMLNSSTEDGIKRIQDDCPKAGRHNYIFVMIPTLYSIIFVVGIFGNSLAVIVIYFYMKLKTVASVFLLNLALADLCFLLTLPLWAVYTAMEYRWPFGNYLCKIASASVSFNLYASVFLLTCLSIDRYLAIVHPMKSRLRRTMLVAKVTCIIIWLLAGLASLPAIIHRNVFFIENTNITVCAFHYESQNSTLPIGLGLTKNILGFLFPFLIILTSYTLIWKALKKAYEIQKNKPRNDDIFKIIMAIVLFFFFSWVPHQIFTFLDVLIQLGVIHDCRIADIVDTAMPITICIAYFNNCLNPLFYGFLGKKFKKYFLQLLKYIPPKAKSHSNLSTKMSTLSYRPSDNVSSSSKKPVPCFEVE
As to the kind of experiment: Relative binding affinity of the compound assessed as ratio of [Asp1,Ile5]angiotensin II ED50 to compound ED50 for angiotensin 2 receptor in rabbit aortic strips.
As to `CC[C@H](C)[C@H](NC(=O)[C@H](Cc1ccc(O)cc1)NC(=O)[C@@H](NC(=O)[C@H](CCCNC(=N)N)NC(=O)[C@H](CC(=O)O)N1C=C(c2ccccc2)C(=O)C1(O)c1ccccc1)C(C)C)C(=O)N[C@@H](Cc1cnc[nH]1)C(=O)N1CCC[C@H]1C(=O)N[C@@H](Cc1ccccc1)C(=O)O` (some centres not stated), the relative binding affinity (RBA) is 3.

Regarding `CC[C@H](C)[C@H](NC(=O)[C@H](Cc1ccc(O)cc1)NC(=O)[C@@H](NC(=O)[C@@H](N)CCCN=C(N)N)C(C)C)C(=O)N[C@@H](Cc1c[nH]cn1)C(=O)N1CCC[C@H]1C(=O)N[C@@H](Cc1ccccc1)C(=O)O`, the relative binding affinity (RBA) was found to be 2.

For `CC(C)[C@H](NC(=O)[C@H](CCCNC(=N)N)NC(=O)[C@H](CC(N)=O)NC(=S)Nc1ccc(-c2c3ccc(=O)cc-3oc3cc(O)ccc23)c(C(=O)O)c1)C(=O)N[C@@H](Cc1ccc(O)cc1)C(=O)N[C@H](C(=O)N[C@@H](Cc1cnc[nH]1)C(=O)N1CCC[C@H]1C(=O)N[C@@H](Cc1ccccc1)C(=O)O)C(C)C` (X2-NRVYVHPF-OH), the relative binding affinity (RBA) came to 1.

As to `CC(C)[C@H](NC(=O)[C@H](CCCNC(=N)N)NC(=O)[C@H](CC(N)=O)NC(=O)c1ccc(C=O)cc1)C(=O)N[C@@H](Cc1ccc(O)cc1)C(=O)N[C@H](C(=O)N[C@@H](Cc1cnc[nH]1)C(=O)N1CCC[C@H]1C(=O)N[C@@H](Cc1ccccc1)C(=O)O)C(C)C` (X1-NRVYVHPF-OH), the relative binding affinity (RBA) stood at 8.

For the compound `CC(C)[C@H](NC(=O)[C@H](CCCNC(=N)N)NC(=O)[C@@H](N)CC(N)=O)C(=O)N[C@@H](Cc1ccc(O)cc1)C(=O)N[C@H](C(=O)N[C@@H](Cc1c[nH]cn1)C(=O)N1CCC[C@H]1C(=O)N[C@@H](Cc1ccccc1)C(=O)O)C(C)C` (H-NRVYVHPF-OH), the relative binding affinity (RBA) came out at 23.

For the compound `CC[C@H](C)[C@H](NC(=O)[C@H](Cc1ccc(O)cc1)NC(=O)[C@@H](N)C(C)C)C(=O)N[C@@H](Cc1cnc[nH]1)C(=O)N1CCC[C@H]1C(=O)N[C@@H](Cc1ccccc1)C(=O)O`, the relative binding affinity (RBA) was 0.03.

In the case of `CCCC[C@H](NC(=O)c1cc(N=[N+]=[N-])ccc1[N+](=O)[O-])C(=O)N[C@@H](CC(=O)O)C(=O)N[C@@H](CCCNC(=N)N)C(=O)N[C@H](C(=O)N[C@@H](Cc1ccc(O)cc1)C(=O)N[C@H](C(=O)N[C@@H](Cc1cnc[nH]1)C(=O)N1CCC[C@H]1C(=O)N[C@@H](Cc1ccccc1)C(=O)O)[C@@H](C)CC)C(C)C`, the relative binding affinity (RBA) was 0.5.

These data come from ChEMBL document CHEMBL3272218, “Biologically active derivatives of angiotensin for labeling cellular receptors” (J Med Chem, 1978).
